Data taken from patent US10562912B2 (C&C Research Laboratories, priority 2013, dated 2020).

Tests used:
Format in all cases: cell-based
STAT3 = target: T1, STAT3 (Homo sapiens, UniProt P40763); experiment: STAT3 reporter gene assay (luciferase), LNCaP stable cell line (pSTAT3-TA-luc), IL-6 stimulation
T1 construct: plasmid pSTAT3-TA-luc), which contains a stably operating STAT3 promoter; endogenous in cells
Procedure, shortened: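 Cytotoxicity was run on a duplicate plate with CellTiter-Glo, while the other plate gave luciferase read-outs from lysed LNCaP pSTAT3-TA-luc reporter cells. Cells were treated with graded compound concentrations plus IL-6 (10 ng/mL final) for 24–48 h in 3% DCC-FBS medium. Unstimulated and stimulated wells served as negative and positive controls.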

LNCaP = experiment: Cell growth inhibition assay, prostate cancer cell line LNCaP (medium with 10 ng/mL IL-6); settings: Homo sapiens, medium supplemented with 10 ng/mL of IL-6, 10,000 cells/well
HEL92.1.7 = experiment: Cell growth inhibition assay, blood cancer cell line HEL92.1.7; settings: Homo sapiens, HEL 92.1.7, HEL92.1.7 blood cancer cell line
Method: The inhibitory effects of the compounds of the present invention against the growth of cancer cells were evaluated as shown below. The cancer cell lines including stomach cancer cell line (AGS), breast cancer cell lines (MDA-MB-231, MDA-MB-468, and BT-549), prostate cancer cell lines (LNCaP and DU-145), colon cancer cell line (HCT116), ovarian cancer cell line (SW626), liver cancer cell line (Hep3B), kidney cancer cell line (ACHN), lung cancer cell line (NCI-H23) and blood cancer cell lines (HEL92.1.7 and U266) were cultured under the protocol provided by each supplier. A medium supplemented with 10 ng/mL of IL-6 was used for LNCaP, a prostate cancer cell line, when treated with a drug. Each type of cells to be used in experiments were sub-cultured in a 96-well plate by counting the exact number of cells using Tali™ Image-based Cytometer (Life Technologies). In a 96-well plate, AGS, HCT116, and DU-145 were employed with 3,000 cells/well; NCI-H23, SW626, Hep3B, ACHN, BT-549, MDA-MB-231, HEL92.1.7, and U266 were employed with 5,000 cells/well; and LNCaP and MDA-MB-468 were employed with 10,000 cells/well. The cells were treated with the compounds listed in Examples which were diluted in various concentrations. Upon completion of the compounds treatment, AGS, HCT116, SW626, DU145, NCI-H23, Hep3B, ACHN, BT-549, LNCaP, HEL92.1.7, and U266 cells were cultured at 37° C. under 5% CO2 for from 72 to 96 hours, and MDA-MB-231 and MDA-MB-468 cells were cultured at 37° C. in air for from 72 to 96 hours. Subsequently, the cells were observed under microscope and drug precipitation and particular findings were investigated and recorded. And then, the 96-well plate was placed at room temperature for 30 minutes, added with 20 μL/well of CellTiter-Glo solution (Cat No. G7573, Promega) and shaken for 10 minutes, followed by being subjected to the measurement using PHERAstar™ microplate reader (BMG LABTECH) according to the supplier's general luminometer protocol. Wells where only culture liquid added without cell plating were used as a negative control, whereas wells where culture liquid containing 0.1% DMSO instead of the compounds listed in Examples were used as a positive control.

DU-145 = experiment: Cell growth inhibition assay, prostate cancer cell line DU-145; settings: Homo sapiens, DU-145 prostate cancer cell line
Procedure, shortened: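 Luminescent CellTiter-Glo readout of viable cells after 72–96 h compound exposure (37° C., 5% CO2). Seeding: 3,000 cells/well for DU-145 and HCT116, 5,000 cells/well for SW626. Controls were medium without cells and 0.1% DMSO vehicle.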

T1 sequence (P40763 whole entry): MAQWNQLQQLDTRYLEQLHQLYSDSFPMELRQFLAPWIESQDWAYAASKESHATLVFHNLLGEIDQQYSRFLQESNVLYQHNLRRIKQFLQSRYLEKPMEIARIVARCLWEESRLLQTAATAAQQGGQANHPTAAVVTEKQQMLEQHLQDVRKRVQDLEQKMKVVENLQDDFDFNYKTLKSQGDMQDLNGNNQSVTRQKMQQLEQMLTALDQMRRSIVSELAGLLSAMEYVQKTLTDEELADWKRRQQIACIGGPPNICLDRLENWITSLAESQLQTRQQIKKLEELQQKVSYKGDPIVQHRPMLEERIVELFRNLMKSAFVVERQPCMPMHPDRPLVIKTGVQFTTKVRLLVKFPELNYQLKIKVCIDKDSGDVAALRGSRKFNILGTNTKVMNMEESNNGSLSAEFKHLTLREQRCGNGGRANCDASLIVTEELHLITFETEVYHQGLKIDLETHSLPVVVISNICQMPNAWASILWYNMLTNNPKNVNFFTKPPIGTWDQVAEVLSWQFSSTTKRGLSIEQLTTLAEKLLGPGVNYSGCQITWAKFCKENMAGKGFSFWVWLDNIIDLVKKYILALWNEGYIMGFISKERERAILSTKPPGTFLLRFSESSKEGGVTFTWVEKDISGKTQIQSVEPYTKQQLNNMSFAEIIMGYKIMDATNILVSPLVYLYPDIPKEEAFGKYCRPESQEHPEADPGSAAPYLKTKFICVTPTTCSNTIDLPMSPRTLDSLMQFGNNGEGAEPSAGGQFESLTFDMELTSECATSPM

| Compound | IC50 (STAT3) | IC50 (LNCaP) | IC50 (HEL92.1.7) | IC50 (DU-145) |
| --- | --- | --- | --- | --- |
| CN(c1cc2cc(C(=O)Nc3cc(Cl)cc(C(C)(C)c4ccc(Cl)cc4)c3)sc2cc1F)S(C)(=O)=O [Example 163, N-(3-chloro-5-(2-(4-chlorophenyl)propan-2-yl)phenyl)-6-fluoro-5-(N-methylmethylsulfonamido)benzo[b]thiophene-2-carboxamide] | 0.011 µM | 0.013 µM | 0.019 µM | 0.016 µM |
| CC(C)(c1cc(Cl)cc(NC(=O)c2cc3cc(NS(C)(=O)=O)ccc3s2)c1)N1CCCCC1 [Example 164, N-(3-chloro-5-(2-(piperidin-1-yl)propan-2-yl)phenyl)-5-(methylsulfonamido)benzo[b]thiophene-2-carboxamide] | 0.72 µM | 0.9 µM | > 1.1 µM | > 1.1 µM |
| CC(C)(c1cc(Cl)cc(NC(=O)c2cc3cc(NS(C)(=O)=O)ccc3s2)c1)n1cnccc1=O [Example 189] | > 10 µM | > 10 µM | > 1.1 µM | > 1.1 µM |
| CC(C)(c1cc(Cl)cc(NC(=O)c2cc3cc(NS(C)(=O)=O)ccc3s2)c1)n1ncccc1=O [Example 190, N-(3-chloro-5-(2-(6-oxopyridazin-1(6H)-yl)propan-2-yl)phenyl)-5-(methylsulfonamido)benzo[b]thiophene-2-carboxamide] | 2.37 µM | > 1.1 µM | > 1.1 µM | > 1.1 µM |
| CC(C)Oc1cc(OC(F)(F)F)cc(C(C)(C)c2cc(Cl)cc(NC(=O)c3cc4cc(NC(=O)OC(C)(C)C)ccc4s3)c2)c1 [Example 194, tert-butyl (2-((3-chloro-5-(2-(3-isopropoxy-5-(trifluoromethoxy)phenyl)propan-2-yl)phenyl)carbamoyl)benzo[b]thiophen-5-yl)carbamate] | > 10 µM | > 1.1 µM | > 1.1 µM | > 1.1 µM |
| COCCS(=O)(=O)Nc1ccc2sc(C(=O)Nc3cc(Cl)cc(C(C)(C)c4cc(OC(C)C)cc(OC(F)(F)F)c4)c3)cc2c1 [Example 195, N-(3-chloro-5-(2-(3-isopropoxy-5-(trifluoromethoxy)phenyl)propan-2-yl)phenyl)-5-((2-methoxyethyl)sulfonamido)benzo[b]thiophene-2-carboxamide] | 0.011 µM | 0.035 µM | 0.029 µM | 0.007 µM |
| CC(C)Oc1cc(OC(F)(F)F)cc(C(C)(C)c2cc(Cl)cc(NC(=O)c3cc4cc(NS(=O)(=O)CC5CCOC5)ccc4s3)c2)c1 (centres unmarked) [Example 196, N-(3-chloro-5-(2-(3-isopropoxy-5-(trifluoromethoxy)phenyl)propan-2-yl)phenyl)-5-(((tetrahydrofuran-3-yl)methyl)sulfonamido)benzo[b]thiophene-2-carboxamide] | 0.02 µM | 0.084 µM | 0.12 µM | 0.022 µM |
| Cc1noc(C)c1S(=O)(=O)Nc1ccc2sc(C(=O)Nc3cc(Cl)cc(C(C)(C)c4cc(OC(C)C)cc(OC(F)(F)F)c4)c3)cc2c1 [Example 199, N-(3-chloro-5-(2-(3-isopropoxy-5-(trifluoromethoxy)phenyl)propan-2-yl)phenyl)-5-((3,5-dimethylisoxazole)-4-sulfonamido)benzo[b]thiophene-2-carboxamide] | 0.65 µM | 0.34 µM | 0.68 µM | 0.15 µM |

Continued, values first:

| IC50 (STAT3) | IC50 (LNCaP) | IC50 (HEL92.1.7) | IC50 (DU-145) | Compound |
| --- | --- | --- | --- | --- |
| 0.12 µM | 0.059 µM | 0.21 µM | 0.047 µM | CC(C)(c1ccc(Br)cc1)c1cc(Cl)cc(NC(=O)c2cc3cc(NS(C)(=O)=O)ccc3s2)c1 [Example 152, N-(3-(2-(4-bromophenyl)propan-2-yl)-5-chlorophenyl)-5-(methylsulfonamido)benzo[b]thiophene-2-carboxamide] |
| 0.15 µM | 0.1 µM | 0.39 µM | 0.15 µM | COc1ccc(C(C)(C)c2cc(Cl)cc(NC(=O)c3cc4cc(NS(C)(=O)=O)ccc4s3)c2)cc1OC [Example 153, N-(3-chloro-5-(2-(3,4-dimethoxyphenyl)propan-2-yl)phenyl)-5-(methylsulfonamido)benzo[b]thiophene-2-carboxamide] |
| 0.14 µM | 0.11 µM | 0.34 µM | 0.17 µM | COc1ccc(C(C)(C)c2cc(Cl)cc(NC(=O)c3cc4cc(NS(C)(=O)=O)ccc4s3)c2)c(OC)c1 [Example 154, N-(3-chloro-5-(2-(2,4-dimethoxyphenyl)propan-2-yl)phenyl)-5-(methylsulfonamido)benzo[b]thiophene-2-carboxamide] |
| 0.078 µM | 0.034 µM | 0.13 µM | 0.061 µM | COc1ccc(C(C)(C)c2cc(Cl)cc(NC(=O)c3cc4cc(NS(C)(=O)=O)ccc4s3)c2)cc1 [Example 155, N-(3-chloro-5-(2-(4-methoxyphenyl)propan-2-yl)phenyl)-5-(methylsulfonamido)benzo[b]thiophene-2-carboxamide] |
| 0.23 µM | 0.14 µM | 0.74 µM | 0.25 µM | COc1ccc(OC)c(C(C)(C)c2cc(Cl)cc(NC(=O)c3cc4cc(NS(C)(=O)=O)ccc4s3)c2)c1 [Example 156, N-(3-chloro-5-(2-(2,5-dimethoxyphenyl)propan-2-yl)phenyl)-5-(methylsulfonamido)benzo[b]thiophene-2-carboxamide] |
| 0.063 µM | 0.079 µM | 0.23 µM | 0.06 µM | CSc1ccc(C(C)(C)c2cc(Cl)cc(NC(=O)c3cc4cc(NS(C)(=O)=O)ccc4s3)c2)cc1 [Example 157, N-(3-chloro-5-(2-(4-(methylthio)phenyl)propan-2-yl)phenyl)-5-(methylsulfonamido)benzo[b]thiophene-2-carboxamide] |
| 0.12 µM | 0.056 µM | 0.22 µM | 0.048 µM | CC(C)(c1ccc(Cl)cc1)c1cc(Cl)cc(NC(=O)c2cc3cc(NS(C)(=O)=O)ccc3s2)c1 [Example 158, N-(3-chloro-5-(2-(4-chlorophenyl)propan-2-yl)phenyl)-5-(methylsulfonamido)benzo[b]thiophene-2-carboxamide] |
| 0.069 µM | 0.064 µM | 0.2 µM | 0.052 µM | CC(C)(c1cc(Cl)cc(NC(=O)c2cc3cc(NS(C)(=O)=O)ccc3s2)c1)c1ccc(F)c(F)c1 [Example 162, N-(3-chloro-5-(2-(3,4-difluorophenyl)propan-2-yl)phenyl)-5-(methylsulfonamido)benzo[b]thiophene-2-carboxamide] |
| 0.31 µM | 1 µM | > 1.1 µM | 0.41 µM | CC(C)(c1cc(Cl)cc(NC(=O)c2cc3cc(NS(C)(=O)=O)ccc3s2)c1)c1ccc[nH]1 [Example 166, N-(3-(2-(1H-pyrrol-2-yl)propan-2-yl)-5-chlorophenyl)-5-(methylsulfonamido)benzo[b]thiophene-2-carboxamide] |
| 2.6 µM | 2.3 µM | > 1.1 µM | > 1.1 µM | CC(C)(c1cc[nH]c1)c1cc(Cl)cc(NC(=O)c2cc3cc(NS(C)(=O)=O)ccc3s2)c1 [Example 167, N-(3-(2-(1H-pyrrol-3-yl)propan-2-yl)-5-chlorophenyl)-5-(methylsulfonamido)benzo[b]thiophene-2-carboxamide] |
| 0.13 µM | 0.096 µM | 0.39 µM | 0.13 µM | Cn1ccc(C(C)(C)c2cc(Cl)cc(NC(=O)c3cc4cc(NS(C)(=O)=O)ccc4s3)c2)c1 [Example 168, N-(3-chloro-5-(2-(1-methyl-1H-pyrrol-3-yl)propan-2-yl)phenyl)-5-(methylsulfonamido)benzo[b]thiophene-2-carboxamide] |
| 0.039 µM | 0.073 µM | 0.09 µM | 0.021 µM | Cn1cccc1C(C)(C)c1cc(Cl)cc(NC(=O)c2cc3cc(NS(C)(=O)=O)ccc3s2)c1 [Example 169, N-(3-chloro-5-(2-(1-methyl-1H-pyrrol-2-yl)propan-2-yl)phenyl)-5-(methylsulfonamido)benzo[b]thiophene-2-carboxamide] |
